Results on five compounds are retold here after patent US20240041866A1, “PHARMACEUTICAL COMPOSITION” (FUJIFILM TOYAMA CHEMICAL CO., LTD., priority 2020, published 2024).

Data set [1] can be described thus: Test Example 2: Appearance (degree of coloring) of aqueous solution left at 70° C. It is filed as physicochemical. Particulars: stabilizing component added to aqueous solution of Compound A. The protocol: To examine the stabilizing effect of a stabilizing component, the degree of coloring was determined. […] Subsequently, the color tone of each filtrate was observed visually.

The conditions of data set [2]: cited from earlier work.

As for `O=C(O)CN(CCO)CCO` [bicine, N,N-bis(2-hydroxyethyl)glycine], the “Results in view of appearance” value in data set [1] was “particularly favorable”. Same read-out and setting: to `NC(CO)(CO)CO` [trometamol] belongs “particularly favorable”; to `O=C(O)CNC(CO)(CO)CO` [tricine, N-[tris(hydroxymethyl)methyl]glycine], “particularly favorable”.

As for `O=C(O)CN(CCN(CC(=O)O)CC(=O)O)CC(=O)O` [EDTA, ethylenediamine tetraacetic acid], in data set [1], the “Results in view of appearance” value is listed as “particularly favorable”. Regarding `NC(=O)c1nc(F)c[nH]c1=O` [Compound A, 6-fluoro-3-hydroxy-2-pyrazinecarboxamide], in data set [2], the Water solubility entry was “low water solubility”.
